The test system of data set [1] is beagle dogs. Description: Two-day oral dose toxicity and pharmacokinetic study (non-GLP). Format: in vivo. On the procedure:
SRP-001 was supplied by Olon Ricerca Bioscience as an off-white powder and then prepared as dosing suspensions for oral administration via gavage (Calvert Labs/Altasciences, Scott Township, PA USA). Six experimentally non-naïve male Beagle dogs (3/dose), at least 7 months old and weighing 7.2 to 10.2 kg prior to treatment initiation, were administered 100 or 900 mg/kg/d SRP-001. Animals were dosed three times daily (3–5 h between doses) for 2 d. Mortality/morbidity was performed twice daily. On the day of dosing, animals were observed prior to each dose administration and approximately 1–3 h after each dose. Animals were also observed once on day 3. Body weights were recorded for all animals prior to the first dose administration on days 1 and 3, and food consumption was recorded daily. Blood for bioanalytical evaluation was collected at selected timepoints on day 1. Following the completion of the study, surviving animals were not euthanized and were returned to the Calvert colony. […]
Following a single administration of 900 mg SRP-001 oral suspension in the fed state, plasma concentrations of SRP-001 were observed from the first sampling time-point of 1 h post-dose for all subjects. […] In a two-day oral dose toxicity and pharmacokinetic (PK) study of […] in Beagle dogs, peak plasma concentrations of SRP-001 were detected within a 30-min to 1-h window post-administration. […]

In data set [2] the test system is Peripheral blood reticulocytes. Description: In vivo mammalian micronucleus assay. On the set-up: species or system rats. The protocol: Male rats were dosed at 500, 1000, and 2000 mg/kg/d once per day on two consecutive days at 10 mL/kg via oral gavage using 10% labrasol, 10% DMSO, and 80% PEG400 as the vehicle (Bioreliance, Rockville, MD USA). Approximately 48 h after the second dose administration, peripheral blood was collected for flow cytometric analysis of micronuclei. There was no significant increase in the incidence of micronuclei in the test article-dosed animals compared to the concurrent vehicle control. The vehicle control value was compatible with the historical range of % micronucleated reticulocytes (MnRETs). There was a statistically significant increase in MnRETs in the positive control compared to the concurrent vehicle control.

Data set [3] concerns beagle dogs. Particulars: dog, in vivo. On the procedure: Two beagle dogs (1/sex) were administered 30, 100, 250, or 500 mg/kg SRP-001. […] After a period of at least 2 d (minimum of 44 h) following the previous dose of test article, additional dose levels of SRP-001, as indicated above, were administered by oral gavage to the same 2 dogs (1 male and 1 female). Each dose was based on the dog’s most recent body weight. Mortality/morbidity was observed twice daily and once prior to scheduled sacrifice. Body weights were recorded prior to randomization/selection, prior to each dose administration, and prior to scheduled sacrifice. At scheduled sacrifice, a gross necropsy was performed, and the tissues were appropriately discarded. […] Doses for Phase II of the study were set based on Phase I results. The actual dose amounts selected for Phase II of the study were 0, 30, 100, or 300 mg/kg/d of SRP-001. These doses were administered once daily for seven consecutive days to 1 Beagle dog/sex/dose.

For data set [4], the system named is beagle dogs. Description: Single oral dose (capsule) toxicity and pharmacokinetic study (non-GLP). The data set is classed as in vivo. Particulars: single dose 300 mg/kg. The protocol:
SRP-001 was prepared into capsules for oral administration. Three experimentally non-naïve Beagle dogs, at least 7 months old and weighing 7.7 to 10 kg prior to treatment initiation, were administered a single dose of 300 mg/kg SRP-001 (Calvert Labs/Altasciences, Scott Township, PA USA). On the day of dosing, animals were observed prior to dose administration, approximately 1–3 h post-dose, and once on day 2. Body weights were recorded for all animals prior to dose administration for the preparation of the capsules. Blood for bioanalytical evaluation was collected at selected timepoints on day 1. Following the completion of the study, surviving animals were not euthanized. They were returned to the Calvert colony for an appropriate washout period before possible use in a subsequent study. […] Plasma samples were collected at seven different time points post-dose.

Data set [5] relates to Sprague–Dawley rats. Put plainly: 5-day repeat-dose oral toxicity and toxicokinetic study (non-GLP). The data set is classed as in vivo. On the procedure:
(§1) As part of a two-phase study, repeat-dose toxicity and toxicokinetics of SRP-001, when administered via oral gavage once daily to Sprague–Dawley rats for 5 d, was done (Calvert Labs/Altasciences, Scott Township, PA USA). The doses selected for Phase II were based on the results of Phase I. SRP-001 was administered to 20 naïve rats (5/group in Groups 5–8) once daily for 5 days via oral gavage for toxicology evaluation and once to 18 naïve rats (6/group in Groups 9–11) for toxicokinetic evaluation.
(§2) Mortality/morbidity was performed twice daily and once prior to sacrifice. Clinical observations were evaluated prior to each dose administration and approximately 1–3 h post-dose for animals in Groups 5–8. Body weights were recorded prior to randomization/selection, prior to dose administration on day 1 for animals in Groups 5–11, and prior to dose administration on day 5 for Groups 5–8. Food consumption was recorded for animals from Groups 5–8 on day 5. Blood for evaluation of hematology, coagulation and clinical chemistry and urine for urinalysis was collected from animals in Groups 5–8 on day 6. All animals in Groups 5–8 were sacrificed on […]. Selected tissues were harvested at necropsy, selected organs weighed, and selected tissues preserved. Blood for toxicokinetic evaluation was collected from animals in Groups 9–11 at selected timepoints on day 1 to ensure comprehensive data capture. These timepoints include 0 h (pre-dose) and post-dose intervals of 1, 2, 4, 8, and 24 h on both Day 1 and […] of the study. This schedule allows for a robust assessment of SRP-001's pharmacokinetic profile, including absorption, distribution, metabolism, and excretion and is in line with current FDA-guidelines for GLP studies.
(§3) Clinical signs included soft feces, brown staining of the anogenital area, and a few instances of red staining of the muzzle. […] Half-lives were 6.19 and 6.86 h at mid and high doses, respectively. […] Based on these observations, SRP-001 was considered to be tolerated at 1200 mg/kg when administered once daily for 5 consecutive days.

Test in data set [6]: as above
The note with it: Sprague-Dawley, rat, blood, po. The data set is classed as in vivo, rats. On the procedure: as §1, §2, §3

Molecules are shown by their SMILES. Entries after “also recorded” stand apart in the source; their conditions may differ.

On to `CCN(CC)C(=O)c1ccccc1S(=O)(=O)NCC(=O)Nc1ccc(O)cc1` [SRP-001, N,N-diethyl-2-[[2-(4-hydroxyanilino)-2-oxo-ethyl]sulfamoyl]benzamide], for which, in data set [1] (3 times daily for 2 days), the Dose tolerated was determined as 900 mg/kg/day. Moreover, the “Time of peak plasma concentrations post-administration” value in data set [1] (dog, in vivo) is recorded as 30-min to 1-h. For the same compound, the Micronucleus assay result in data set [2] (500, 1000, 2000 mg/kg/day, 2 days, oral gavage) is “negative (non-clastogenic); also recorded: Under the conditions of this study, the administration of SRP-001 at doses up to and including a dose of 2000 mg/kg/day was concluded to be negative in the Micronucleus assay”. Also, in data set [2] (treatment groups versus vehicle), the “% RETs (reticulocytes)” value is “Statistically significant decreases”. Besides, in data set [3], the Gross necropsy entry was “some red discoloration in the GI tract”. For the same compound, the “Bioavailability (bioanalytical analysis of plasma)” value in data set [4] is “poor bioavailability”. In addition, in data set [4], the Tolerability result was “well tolerated”. In data set [5] (day 1), the “AUC and Cmax levels versus dose” value is listed as “increased in a dose-dependent manner”. Moreover, the “Dose considered to be tolerated” value in data set [5] (once daily for 5 consecutive days) is listed as 1200 mg/kg. Also, the “Liver weights and cholesterol levels” value in data set [5] (once daily for 5 days) is listed as “Test article-related increases”. For the same compound, the half-life (usually how long it takes for the measured level to halve) is 6.86 h in data set [6] (high dose) and 6.19 h in data set [6] (mid dose). For the same compound, the Tmax (in general, the time from dosing to the highest level) amounted to 3 h in data set [6] (low dose); 4.5 h in data set [6] (mid and high doses).

The record behind these values is publication PMC11096368, “Transcriptomic signature, bioactivity and safety of a non-hepatotoxic analgesic generating AM404 in the midbrain PAG region” (Scientific Reports, 2024).
